Laboratory results reported in patent US20090221568A1, “Synthesis of Inhibitors of FtsZ” (priority 2005, published 2009).
Read-outs that look alike come from different tables or passages of the source.

What was measured:
E. coli FtsZ [1] = molecular target: T1, E. coli FtsZ (Escherichia coli, UniProt P0A9A6); assay: FtsZ GTPase assay (malachite green); format: biochemical
T1 construct: made in house; host or cells: E. coli BL21(λDE3)
Description: GTPase Assay: Untagged E. coli FtsZ was expressed from pET-3Z^+ in BL21(λDE3) cells (RayChaudhuri, D.; Park, J. T. Nature 1992, 359, 251-254) and purified using a two-step ammonium sulfate fractionation (Romberg et al. J. Biol. Chem. 2001, 276, 11743-11753). FtsZ GTPase assay was performed essentially as described by Margalit et al. (Margalit et al. Proc. Natl. Acad. Sci. U.S.A. 2004, 101, 11821-11826). Briefly, 2 μM E. coli FtsZ in polymerization buffer (4-morpholinepropanesulfonic acid, pH 6.5, 50 mM KCl, 5 mM MgCl2) was preincubated with or without varying concentrations of test compounds (in dimethyl sulfoxide, DMSO) such that the DMSO concentrations in the samples were ˜2%. The control tubes received 2% DMSO alone. After a 5-min preincubation at 25° C., the reactions were initiated by adding 0.5 mM GTP. Aliquots were withdrawn after 5, 15 and 25 ininute intervals and quenched with 50 mM EDTA before color development with the malachite green solution [2 volumes malachite green (0.8 mg/ml)/1 volume polyvinyl alcohol (23.2 mg/ml)/1 volume ammonium molybdate (57.2 mg/ml in 2H2O:3HCl)/2 volumes H2O]. IC50 values were determined from the relative slopes of GTP hydrolysis at different inhibitor concentrations compared to the control with DMSO only.

S. aureus = conditions: cited from earlier work
B. subtilis = conditions: cited from earlier work
M. smegmatis = conditions: cited from earlier work
E. coli = conditions: dash with footnote b = no significant activity; cited from earlier work
P. aeruginosa = conditions: dash with footnote b = no significant activity; cited from earlier work
bacterial strains = conditions: higher MICs indicate that a strain is becoming resistant; cited from earlier work
E. coli FtsZ [2] = molecular target: T1, E. coli FtsZ; conditions: value from Margalit et al. 2004 (footnote a); read-out: Inhibition of E. coli FtsZ GTPase activity, IC50; cited from earlier work
[3] = 2 μM E. coli FtsZ, 0.5 mM GTP, pH 6.5, 25° C., read-out: Inhibition of E. coli FtsZ GTPase activity, IC50

T1 sequence (P0A9A6 whole entry): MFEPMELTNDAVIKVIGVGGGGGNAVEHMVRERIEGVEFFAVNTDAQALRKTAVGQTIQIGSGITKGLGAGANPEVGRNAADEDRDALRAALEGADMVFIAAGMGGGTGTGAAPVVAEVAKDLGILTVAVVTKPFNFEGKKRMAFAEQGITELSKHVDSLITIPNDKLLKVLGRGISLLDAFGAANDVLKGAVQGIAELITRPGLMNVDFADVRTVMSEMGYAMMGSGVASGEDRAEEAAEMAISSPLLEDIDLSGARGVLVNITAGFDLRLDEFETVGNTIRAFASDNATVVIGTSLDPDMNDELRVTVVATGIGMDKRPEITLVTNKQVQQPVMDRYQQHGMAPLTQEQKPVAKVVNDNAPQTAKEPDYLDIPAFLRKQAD

Structure (SMILES) | Inhibition of E. coli GTPase activity, in words (E. coli FtsZ [1]) | Antimicrobial activities (MICs) S. aureus (S. aureus) [µM] | Antimicrobial activities (MICs) B. subtilis (B. subtilis) [µM] | effective MIC defined by NCCLS (bacterial strains) [µM] | further results
O=C1C[C@@H](c2ccccc2)Oc2c(Cc3cc(Cc4ccccc4O)ccc3O)c(O)c(Cc3cc(Cc4ccccc4O)ccc3O)c(O)c21 (racemic) [Compound 3, (±)-2′″-Hydroxy-5″-benzylisouvarinol-B] | potent inhibitors | 10.7 | 2.6 |  | IC50 (E. coli FtsZ [1]): 8.3 ± 0.5 µM; Antimicrobial activities (MICs) M. smegmatis (M. smegmatis): 3.8 µM; Antimicrobial activities (MICs) E. coli (E. coli): 2.3 µM; Antimicrobial activities (MICs) P. aeruginosa (P. aeruginosa): 15.4 µM
CC(=O)c1c(O)c(Cc2ccccc2O)c(O)c(Cc2ccccc2O)c1O [Compound 11, 2,4,6-Trihydroxy-3,5-di(2′-hydroxybenzyl)-acetophenone] | much less potent |  |  |  | IC50 (E. coli FtsZ [1]; [3]): 60.4 ± 2.2 µM
CC1(C)CC(=O)c2c(O)c(Cc3ccccc3O)c(O)c(Cc3ccccc3O)c2O1 [5,7-dihydroxy-6,8-bis(2-hydroxybenzyl)-2,2-dimethylchroman-4-one] |  |  |  |  | IC50 (E. coli FtsZ [1]; FIG. 27 legend, test not named, presumably FtsZ GTPase, read-out: IC50): 21 µM
CN[C@H](CC(C)C)C(=O)N[C@H]1C(=O)N[C@@H](CC(N)=O)C(=O)N[C@H]2C(=O)N[C@H]3C(=O)N[C@H](C(=O)N[C@H](C(=O)O)c4cc(O)cc(O)c4-c4cc3ccc4O)[C@H](O)c3ccc(c(Cl)c3)Oc3cc2cc(c3O[C@@H]2O[C@H](CO)[C@@H](O)[C@H](O)[C@H]2O[C@H]2C[C@](C)(N)[C@H](O)[C@H](C)O2)Oc2ccc(cc2Cl)[C@H]1O [vancomycin] |  |  |  | 5.8 | 
CC[C@H]1OC(=O)[C@H](C)[C@@H](O[C@H]2C[C@@](C)(OC)[C@@H](O)[C@H](C)O2)[C@H](C)[C@@H](O[C@@H]2O[C@H](C)C[C@H](N(C)C)[C@H]2O)[C@](C)(O)C[C@@H](C)C(=O)[C@H](C)[C@@H](O)[C@]1(C)O [erythromycin] |  |  |  | 0.4 | 
O=C1C[C@@H](c2ccccc2)Oc2c(Cc3ccccc3O)c(O)c(Cc3ccccc3O)c(O)c21 (racemic) [Compound 2, (±)-Dichamanetin] | potent inhibitors | 1.7 | 1.7 |  | IC50 (E. coli FtsZ [1]; [3]): 12.5 ± 0.5 µM; Antimicrobial activities (MICs) M. smegmatis (M. smegmatis): 3.4 µM
Oc1ccc(Cl)cc1Cc1cc(Cl)cc(Cc2cc(Cl)ccc2O)c1O [Compound 1, Zantrin Z1, reference compound] |  | 2.5 | 1.25 |  | Antimicrobial activities (MICs) E. coli (E. coli): 20 µM; Antimicrobial activities (MICs) P. aeruginosa (P. aeruginosa): 40 µM; IC50 (E. coli FtsZ [2]): 5 ± 0.5 µM
COc1cccc(OC)c1C(=O)N[C@@H]1C(=O)N2[C@@H]1SC(C)(C)[C@@H]2C(=O)O [methicillin] |  |  |  | 0.8 | 
